Results as given in patent US6521623B1, “N,N'-disubstituted benzimidazolone derivatives with affinity at the serotonin and dopamine receptors” (Boehringer Ingelheim Pharma KG, priority 2000, dated 2003).

Tests used:
5-HT2A [1] = biological target: T1, 5-HT2A (Rattus norvegicus, UniProt P14842); test: 5-HT2A Radioligand Receptor Binding Assay ([3H]-Ketanserin, cerebral frontal cortex membranes); conditions: 0.5 nM [3H]-Ketanserin
T1 construct: Cerebral frontal cortex was homogenized in 10 volumes of ice cold 0.32 M sucrose; from tissue; host or cells: rat cerebral frontal cortex membranes
T1 sequence (P14842 whole entry): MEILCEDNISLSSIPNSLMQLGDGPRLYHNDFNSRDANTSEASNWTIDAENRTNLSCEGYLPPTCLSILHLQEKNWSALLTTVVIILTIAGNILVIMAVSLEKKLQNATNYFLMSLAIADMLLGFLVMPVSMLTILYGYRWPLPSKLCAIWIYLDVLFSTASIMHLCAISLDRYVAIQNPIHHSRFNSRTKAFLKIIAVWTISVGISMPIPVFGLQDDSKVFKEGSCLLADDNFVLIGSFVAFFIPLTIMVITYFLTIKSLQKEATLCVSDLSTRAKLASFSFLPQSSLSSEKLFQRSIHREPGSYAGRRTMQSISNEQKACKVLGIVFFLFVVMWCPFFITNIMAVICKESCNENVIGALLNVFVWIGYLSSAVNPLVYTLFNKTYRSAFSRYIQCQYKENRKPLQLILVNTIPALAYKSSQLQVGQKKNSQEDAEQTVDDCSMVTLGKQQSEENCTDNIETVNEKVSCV
Description: 5-HT2A Radioligand Receptor Binding Assay
Rats (male Sprague-Dawley, 200-250 g) were used. Cerebral frontal cortex was homogenized in 10 volumes of ice cold 0.32 M sucrose in 5 mM Tris-HCl ([…]) buffer. After centrifugation of the homogenate (1,000×g for 10 minutes) the supernatant was then recentrifuged at 48,000×g for 15 minutes. The resulting pellet was gently homogenized in an equal volume of 50 mM Tris-HCl buffer (pH 7.4) and incubated at 37° C. for 10 minutes. Membranes were then collected by centrifugation as above described and finally resuspended in 10 volumes of 50 mM Tris-HCl buffer (pH 7.4).
For displacement experiments membranes (980 μl) were diluted in 50 mM Tris-HCl buffer (pH 7.4) to a final concentration of 1:100 (w/v); the tissue suspension was then incubated at 37° C. for 10 minutes in a final volume of 1 ml in the presence of 0.5 nM [^3H]-Ketanserin. Non-specific binding was determined by incubating similar samples with unlabelled methysergide (100 μM). After incubation, samples prepared in a 24 wells cell culture cluster (Costar) were rapidly filtered by Inotech Cell Harvester (IH 201 filters). The filters were washed three times with 2 ml ice-cold Tris-HCl buffer and placed in polyethylene vials, then 4 ml of Filter Count scintillation cocktail (Packard) were added. The radioactivity present was counted by liquid scintillation spectrometry.
The affinity values (IC50) for the compounds were obtained by a nonlinear least squares regression analysis on the basis of a one binding site model.

5-HT2A [2] = biological target: 5-HT2A (Mus musculus, UniProt P35363); test: 5-HT2 Functional Assay (PI Turnover) in cerebral cortex miniprisms; assay type: biochemical; conditions: 10 μM compound, inhibition of PI turnover accumulation induced by 100 μM 5-HT
Chain of 5-HT2A (Mus musculus, UniProt P35363) (P35363 whole entry, looked up): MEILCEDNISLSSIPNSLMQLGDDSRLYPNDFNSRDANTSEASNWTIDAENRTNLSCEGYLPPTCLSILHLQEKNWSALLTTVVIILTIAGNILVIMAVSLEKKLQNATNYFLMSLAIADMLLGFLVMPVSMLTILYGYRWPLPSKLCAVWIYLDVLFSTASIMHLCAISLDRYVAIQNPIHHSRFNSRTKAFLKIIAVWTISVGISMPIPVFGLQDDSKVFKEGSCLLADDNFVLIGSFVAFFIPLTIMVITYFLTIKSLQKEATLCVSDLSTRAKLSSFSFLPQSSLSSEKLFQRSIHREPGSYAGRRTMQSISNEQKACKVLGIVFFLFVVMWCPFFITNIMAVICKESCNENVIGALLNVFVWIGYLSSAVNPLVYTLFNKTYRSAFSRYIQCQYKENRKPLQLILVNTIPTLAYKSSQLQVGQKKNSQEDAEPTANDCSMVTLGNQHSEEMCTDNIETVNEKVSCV
Description: 5-H T2 Functional Assay (PI Turnover)
Cross-chopped miniprisms (350×350 μm) were prepared from mouse whole cerebral cortices and incubated for 60 minutes at 37° C. in Krebs-Henseleit buffer containing 2 g/l glucose.
Cerebral cortex miniprisms were distributed in vials and incubated for 30 minutes with approximately 170 nM [^3H]-myoinositol (10-20 Ci/mmol) and […] lithium chloride. Samples were divided in different groups in triplicate: control, 100 μM 5-HT, 10 and 30 μM flibanserin+100 μM 5-HT, as standards, and 10 μM of the different compound under investigation+100 μM 5-HT. When 5-HT was added the incubation continued for 45 minutes. Compounds under investigation and flibanserin were added 10 minutes before dispensing 5-HT. Incubation was terminated by the addition of 940 μl chloroform-methanol (1:2 v/v). Further aliquots of chloroform (310 μl) and water (310 μl) were added and labeled inositol phosphates (1 Ps) were extracted from the aqueous phase by ion exchange chromatography using Dowex resin in the formate form. After addition of 10 ml of PicoFluor 40 scintillation cocktail (Packard), the radioactivity present in an aliquot (400 μl) of the aqueous extract was counted by liquid scintillation spectrometry.

5-HT1A = biological target: T2, 5-HT1A (Homo sapiens, UniProt P08908); test: 5-HT1 Functional Assay (cAMP) in CHO/5-HT1A cells; assay type: cell-based; set-up: expressed in transfected cells; host or cells: CHO/5-HT1A cells
T2 sequence (P08908 1-422): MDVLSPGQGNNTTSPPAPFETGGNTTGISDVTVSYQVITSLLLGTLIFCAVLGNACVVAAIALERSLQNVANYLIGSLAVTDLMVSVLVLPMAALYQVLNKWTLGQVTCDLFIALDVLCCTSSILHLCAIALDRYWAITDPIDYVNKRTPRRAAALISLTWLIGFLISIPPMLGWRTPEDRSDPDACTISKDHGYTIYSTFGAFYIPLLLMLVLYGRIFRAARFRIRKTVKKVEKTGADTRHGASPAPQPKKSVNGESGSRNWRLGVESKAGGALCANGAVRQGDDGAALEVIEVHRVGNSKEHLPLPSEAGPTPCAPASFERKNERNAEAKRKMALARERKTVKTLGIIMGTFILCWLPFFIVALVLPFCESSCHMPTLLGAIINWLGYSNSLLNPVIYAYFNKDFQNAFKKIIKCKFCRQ
Description: 5-HT1 Functional Assay (cAMP)
CHO/5-HT1A cells were random seeded at a density of about 200,000/well in 24 well plates the day prior to the experiment. On the day of the experiment, cells were pretreated for 15 minutes at 37° C. with 500 μM isobutylmethylxantine (IBMX) dissolved in culture medium without serum. Wells were then divided in different groups in duplicate as follows: control, 10 μM FSK, 10 μM FSK+1 μM 5-HT as positive standard and 10 μM FSK+10 μM of the different compound under evaluation. Sample solutions were added and incubated for additional 15 minutes at 37° C. After incubation, the medium was aspirated and the reaction stopped by adding 200 μl of lysis buffer. Plates were shaken for 5 minutes, then the lysate was removed and samples were stored at 4° C. until the day of the assay. For the cAMP evaluation, samples were properly diluted and the cAMP content was measured by an enzyme immunoassay system.

CCNC(=O)OCCn1c(=O)n(CCN2CCN(c3cccc(C)c3C)CC2)c2ccccc21 [Compound 215]
IC50 (5-HT2A [1]): 3.2 nM
5-HT2A PI Turnover % inhibition (5-HT2A [2]): 83%
inhibition at 10 µM (5-HT1A): 83%
